# Tested on: IgE antibody in the serum of an egg allergic patient
# Assay: Immunoblotting of two-dimensional electrophoresis of chicken egg (raw egg) yolk proteins with patient serum
# Assay type: binding, human
# Settings: serum of egg-allergic patient 1 (food-dependent exercise-induced anaphylaxis), versus non-egg-allergic serum
# Method: Identification of antigens by immunoblotting was carried out by taking all the steps up to the step of “Second-dimensional SDS-PAGE” as described above in Example 1, followed by the steps of “Transfer to membrane”, “Immunoblotting” and “Analysis” as described below.
# Transfer to membrane was done using the following transfer system and transfer buffer. • Transfer system: XCell SureLock Mini-Cell and XCell II Blot Module (produced by Life Technologies) • Transfer buffer: NuPAGE Transfer Buffer (X20) (produced by Life Technologies), used in a form diluted 20-fold with milliQ water.
# To be specific, proteins in the two-dimensional electrophoresis gels were transferred to a membrane (PVDF membrane) according to the following procedure.
# (1) The PVDF membrane was immersed in 100% methanol followed by milliQ water, and then moved into the transfer buffer to hydrophilize the PVDF membrane.
# (2) After sponge, filter paper, gels treated by second-dimensional SDS-PAGE, the hydrophilized PVDF membrane, filter paper, and sponge were put in place in this order, the transfer system was energized at a constant voltage of 30 V for one hour.
# Immunoblotting of the membrane was carried out using, as a primary antibody, a serum sample from patient (patient 1) with an egg allergy or a serum sample from a non-egg-allergic subject. This egg-allergic patient was a patient diagnosed with food-dependent exercise-induced anaphylaxis (FDEIA) caused by chicken eggs.
# Immunoblotting of the membrane was carried out according to the following procedure. • (1) The transferred membrane was shaken in a 5% skim milk/PBST solution (a PBS buffer containing 0.1% Tween 20 nonionic surfactant) at room temperature for one hour. • (2) The membrane was left to stand in a solution of 5% primary antibody serum in 5% skim milk/PBST at room temperature for one hour. • (3) The membrane was washed with a PBST solution (5 min.×3 times). • (4) The membrane was left to stand in a 1:5000 dilution of the secondary antibody, anti-human IgE-HRP (horseradish peroxidase), with a 5% skim milk/PBST solution at room temperature for one hour. • (5) The membrane was washed with a PBST solution (5 min.×3 times). • (6) The membrane was left to stand in Pierce Western Blotting Substrate Plus (produced by Thermo) for 5 minutes. […]
# The immunoblots obtained with the serum from the egg-allergic patient were compared with those obtained with the control serum from the non-egg-allergic subject. By immunoblotting of the proteins contained in the raw yolk using the serum from the egg-allergic patient (FIG. 2), three spots were detected, which are different from the spots detected when the serum of the non-egg-allergic subject was used and different from those of the known chicken egg allergen proteins.
# Identification of antigens by immunoblotting was carried out using the sera of three other egg-allergic patients (patient 2, patient 3 and patient 4) in the same manner as in Example 2. By immunoblotting of the proteins contained in the raw yolk using the serum from the egg-allergic patients (FIG. 4 for patient 2, FIG. 5 for patient 3, and FIG. 6 for patient 4), spots were detected, which are different from the spots detected when the serum of the non-egg-allergic subject was used and different from those of the known chicken egg allergen proteins. To be specific, spots 4 to 8 for patient 2, spots 9 and 10 for patient 3, and spot 11 for patient 4 were detected.
row,specific reaction/binding of serum IgE with spot in immunoblot,Molecule
1,specifically reacted,vitellogenin-3 (protein) SIIENLKARCSVSQNMITTFNGVEFNYSMPANCYHILAQDCSPELKFLVMMKRLGESADLTAISVRLASHEVDMYVSNGLIQLKINGVQTPTDVPYTSKSGLLISSEKEGLSLKAPEYGVEKLYYDRRKLEIRVAFWMVGKTCGICGKYDAEKKREYQMPSGYLAKDAVSFAQSWVISEDTCTGACKLQRKFVKIEKPVAFNKKASKCFSIEPVLRCAEGCSATRTVPVSVGFHCVPSDSTLELEEEQVRLDQKSEDLVSRVDAHTACSCAQQLCSA
2,specifically reacted,"Spot 3: Central sequence of vitellogenin-1, or C-terminal portion (SEQ ID NO: 18) of lipovitellin-1 (protein) DKPFASGYLKMFGQELLFGRLDKDTLQNVLQVWYGPDEKIPSIRRLISSLQTGIGRQWTKALLLSEIRCIVPTCVGFPMETSFYYSSVTKVAGNVQAQITPSPRSDFRLTELLNSNVRLRSKMSLSMAKHMTFVIGINTNMIQAGLEAHTKVNAHVPVNVVATIQMKEKSIKAEIPPCKEETNLIIVSSKTFAVTRNIEDLAASKMTPVLLPEAVPDIMKMSFDSDSASGETDNIRDRQSVEDVSSGNSFSFGHPSSGKEPFIQSMCSNASTFGVQVCIEKKSVHAAFIRNVPLYNAIGEHALRMSFKPVYSDVPIEKIQVTIQAGDQAPTK"

# Tested on: IgE antibodies from patients
# Assay: Epitope mapping (2) overlapping (10-amino-acid peptides) and (3) alanine scanning on peptide arrays
# Assay type: binding, human
# Settings: overlapping peptides with flanking sequence
# How it was run: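 Overlapping 10-mer peptides shifted by one residue, and alanine-substituted peptides, spotted on cellulose and probed with patient and non-egg-allergic sera; IgE binding read by anti-human IgE-HRP chemiluminescence. Signal expressed relative to parent sequence and graded in bands from <20% (no binding) to ≥90% (retained binding).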
Molecule,"binding to IgE antibodies from patients, sequence comprising a region amino-terminally adjacent to the epitope","binding to IgE antibodies from patients, sequence comprising a region carboxy-terminally adjacent to the epitope"
SEQ ID NO: 517: sequence comprising a region amino-terminally adjacent to epitope 23 (APCRGACKLH; epitope),binding to IgE antibodies from patients,–
SEQ ID NO: 553: sequence comprising a region amino-terminally adjacent to epitope 33 (IVTLAEKYDL; epitope),binding to IgE antibodies from patients,–
SEQ ID NO: 632: sequence comprising a region carboxy-terminally adjacent to epitope 41 (QELLFGRLDK; epitope),–,binding to IgE antibodies from patients
SEQ ID NO: 401: sequence comprising a region carboxy-terminally adjacent to epitope 8 (LPTETPLVS; epitope),–,binding to IgE antibodies from patients
SEQ ID NO: 393: sequence comprising a region carboxy-terminally adjacent to epitope 8 (LPTETPLV; epitope),–,binding to IgE antibodies from patients

# Next, values leading:
"binding to IgE antibodies from patients, sequence comprising a region amino-terminally adjacent to the epitope","binding to IgE antibodies from patients, sequence comprising a region carboxy-terminally adjacent to the epitope",Molecule
–,binding to IgE antibodies from patients,SEQ ID NO: 487: sequence comprising a region carboxy-terminally adjacent to epitope 20 (NIKIGSHEI; epitope)
–,binding to IgE antibodies from patients,SEQ ID NO: 476: sequence comprising a region carboxy-terminally adjacent to epitope 20 (AINIKIGSHE; epitope)
binding to IgE antibodies from patients,–,SEQ ID NO: 342: sequence comprising a region amino-terminally adjacent to epitope 4 (DAITALKKIA; epitope)
–,binding to IgE antibodies from patients,SEQ ID NO: 360: sequence comprising a region carboxy-terminally adjacent to epitope 6 (PSAIISKLMA; epitope)
binding to IgE antibodies from patients,–,SEQ ID NO: 451: sequence comprising a region amino-terminally adjacent to epitope 17 (FVTNLTDSSK; epitope)
binding to IgE antibodies from patients,–,SEQ ID NO: 613: sequence comprising a region amino-terminally adjacent to epitope 39 (ANELLDR; epitope)

# Same assay, conditions: procedures (B) overlapping and (C) alanine scanning
row,Molecule,region within the epitope important for binding to IgE antibodies from patients
1,SEQ ID NO: 444: region in epitope 16 (QEFPKRKLPG; epitope),important for binding
2,SEQ ID NO: 473: region in epitope 20 (INIKIGSH; epitope),important for binding
3,SEQ ID NO: 350: region in epitope 4 (AWKDPKTV; epitope),important for binding
4,SEQ ID NO: 347: region in epitope 4 (LKKIA; epitope),important for binding
5,SEQ ID NO: 494: region in epitope 21 (DKLYFD; epitope),important for binding
6,SEQ ID NO: 520: region in epitope 23 (ACKLHRSFVK; epitope),important for binding
7,SEQ ID NO: 658: region in epitope 46 (MKMSFDSDS; epitope),important for binding
8,SEQ ID NO: 531: region in epitope 26 (GLLIS; epitope),important for binding
9,SEQ ID NO: 330: region in epitope 3 (RGREDKMK; epitope),important for binding
10,SEQ ID NO: 331: region in epitope 3 (KMKLALKCIG; epitope),important for binding
11,SEQ ID NO: 585: region in epitope 36 (GKGFE; epitope),important for binding
12,SEQ ID NO: 528: region in epitope 26 (GLLIS; epitope),important for binding

# The next lines start with the values.
row,region within the epitope important for binding to IgE antibodies from patients,Molecule
1,important for binding,SEQ ID NO: 571: region in epitope 34 (KDEPLNV; epitope)
2,important for binding,SEQ ID NO: 630: region in epitope 41 (YLKMFGQELL; epitope)
3,important for binding,ELL (epitope) [SEQ ID NO: 637]
4,important for binding,SEQ ID NO: 555: region in epitope 33 (AEKYDLKN; epitope)
5,important for binding,SEQ ID NO: 659: region in epitope 46 (MSFDSDSASG; epitope)
6,important for binding,SEQ ID NO: 541: region in epitope 27 (ICGKYDAEKK; epitope)
7,important for binding,SEQ ID NO: 483: region in epitope 20 (ATNLKAINIK; epitope)
8,important for binding,SEQ ID NO: 434: region in epitope 15 (SSSSSNSKS; epitope)
9,important for binding,SEQ ID NO: 594: region in epitope 37 (IVTPGAKVAV; epitope)
